Experimental findings from patent US20230417740A1, “TISSUE-MIMICKING HYDROGEL COMPOSITIONS FOR BIOFABRICATION” (Wake Forest University Health Sciences, priority 2014, published 2023) are described below.

This experiment deals with bioprinted liver organoids. The class given is cell-based. The settings on record: 20 mM NAC with 10 mM APAP, general trend of the data.

Each structure is given as a SMILES string.

For `CC(=O)N[C@@H](CS)C(=O)O` [NAC, N-acetyl-L-cysteine], the “rescue of liver organoids from APAP insult” value is recorded as “can be rescued”.
